Among the data in patent publication US6939896B2, “Cd45 inhibitors” (AstraZeneca AB, priority 1999, dated 2005) are IC50 and CC50 values, retold here.

Series [1] deals with T1, CD45 (Homo sapiens, UniProt P08575).
T1 construct: incubating the cytosolic portion of CD45 with the compounds and p-nitrophenyl phosphate (pNPP); purchased BIOMOL (Plymouth Meeting, Pa.)
T1 sequence (P08575 599-1306 limits assumed): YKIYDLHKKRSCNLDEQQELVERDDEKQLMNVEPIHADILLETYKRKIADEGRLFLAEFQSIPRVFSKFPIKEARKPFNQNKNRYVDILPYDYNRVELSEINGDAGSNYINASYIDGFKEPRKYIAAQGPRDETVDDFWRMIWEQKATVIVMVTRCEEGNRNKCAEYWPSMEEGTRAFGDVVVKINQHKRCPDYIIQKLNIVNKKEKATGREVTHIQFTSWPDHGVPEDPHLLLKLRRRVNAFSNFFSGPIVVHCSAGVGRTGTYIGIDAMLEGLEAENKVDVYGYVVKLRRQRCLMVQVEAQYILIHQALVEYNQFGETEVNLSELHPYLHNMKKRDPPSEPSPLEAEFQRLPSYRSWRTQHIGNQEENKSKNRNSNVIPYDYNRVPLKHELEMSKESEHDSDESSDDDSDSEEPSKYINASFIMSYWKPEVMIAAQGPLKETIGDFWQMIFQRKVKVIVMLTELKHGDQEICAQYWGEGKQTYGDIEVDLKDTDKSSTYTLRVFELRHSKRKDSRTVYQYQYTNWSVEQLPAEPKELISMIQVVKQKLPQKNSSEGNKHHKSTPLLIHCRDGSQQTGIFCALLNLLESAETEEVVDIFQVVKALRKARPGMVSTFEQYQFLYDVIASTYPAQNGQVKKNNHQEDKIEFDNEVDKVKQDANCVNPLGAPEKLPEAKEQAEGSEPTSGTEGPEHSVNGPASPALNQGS
Kind of series: Phosphatase assay using lck 10-mer as substrate. The series is classed as biochemical. The following applies: lck carboxy-terminal peptide TEGQpYQPQP substrate, pH 7.2, 5% DMSO, read-out: Ick IC50. The protocol:
(§1) Potent inhibitors of CD45 have been discovered. Such inhibitors are useful for the treatment of various autoimmune disorders as well as for treatment of OGR. Inhibition of the phosphatase activity of CD45 by compounds of the present invention has been shown by incubating the cytosolic portion of CD45 with the compounds and p-nitrophenyl phosphate (pNPP), a phosphatase substrate. Spectrophotometric monitoring has shown that the liberation of p-nitrophenol from the substrate by CD45 is inhibited in the presence of the compounds disclosed herein. Inhibition of the phosphatase activity of CD45 by compounds of the present invention has also been shown using a p56^lck carboxy-terminal phosphorylated peptide as a substrate.
Phosphatase activity was assayed in 96 well plates in a buffer containing final concentrations of 25 mM HEPES at pH 7.2, 5 mM DTT and 10 μg/mL BSA, using the lck carboxy-terminal peptide TEGQpYQPQP as the substrate (Cho, H., Krishnaraj. R., Itoh. M., Kitas, E., Bannwarth, W., Saito, H., Walsh, C. T. 1993. Substrate specificities of catalytic fragments of protein tyrosine phosphatases (HPTPb, LAR. and CD45) toward the phosphotyrosylpeptide substrates and thiophosphotyrosylated peptides as inhibitors. Protein Science 2:977-984). Compounds were tested in a range from 30 to 0.01 μM in a final concentration of 5% DMSO. Enzyme was incubated with substrate. with or without compound, at room temperature for 1.5 h. At the end of the incubation period, BIOMOL “Green Reagent” (BIOMOL, Plymouth Meeting, Pa.) was added to each well, the plates incubated at room temperature for 30 min and absorbance read at 620 nm.

The target in series [2] is T1, CD45. Kind of series: Phosphatase assay using pNPP as substrate. The series is classed as biochemical. The following applies: pH 7.0. As to the method:
as §1
CD45 enzyme was obtained from BIOMOL (Plymouth Meeting, Pa.). Phosphatase activity was assayed in a buffer containing final concentrations of 25 mM imidazole at pH 7.0, 50 mM NaCl, 2.5 mM ethylenediaminetetraacetic acid (“EDTA”), 5 mM dithiothreitol (“DTT”) and 10 μg/mL bovine serum albumin (“BSA”) using pNPP as a substrate.
Activity was measured by following the increase in absorbance at 405 nm using a SpectraMax Plus spectrophotometric plate reader (Molecular Devices, Sunnyvale, Calif.).

Series [3] has as its system Peripheral blood mononuclear cells (T cells). Kind of series: T cell proliferation assay (anti-CD3 OKT3-activated PBMC, [3H]thymidine). The series is classed as cell-based. The following applies: human PBMC activated with OKT3 30 ng/mL, read-out: T cell prolif. IC50. The protocol:
Whole blood was obtained from healthy human blood donors. Peripheral blood mononuclear cells (“PBMC”) were isolated using Lymphoprep density-gradient centrifugation (Nycomed Amersham, Oslo, Norway), washed, counted and resuspended at 2×10^6 cells/mL in RPMI 1640 medium containing glutamine, 0.1 mg/mL gentamycin and 10% heat inactivated human serum. PBMC were transferred to 96-well plates (2×10^5 cells/well) containing compound or vehicle control, with the final concentration of DMSO not to exceed 0.3% and incubated for 1 hour before addition of the activating anti-CD3 antibody, OKT3 (30 ng/mL). After 24 hours in culture, the cells were pulsed with [3H]thymidine (1 μCi/well) overnight and harvested the next day onto 96-well Packard GF/C filter plates using a Packard Cell Harvester (Packard Instruments, Meriden, Conn.). The filter plate was dried, the bottom of the plate sealed, 25 μL of Microscint 20 scintillation fluid added to each well, the top of the plate sealed with TopSeal-A, and the plate counted on a Packard TopCount. The data from the TopCount is transferred into Excel 5 (Microsoft, Redmond, Wash.) and formatted for EC50 determination using Prism software (GraphPad Software, San Diego, Calif.).

A short description of series [4]: Cytotoxicity assay (Calcein-AM uptake). The series is classed as cell-based. The following applies: human, T-cell lymphoblasts (PHA-expanded PBMC), overnight incubation, Calcein-AM viability.

As a reminder, the IC50 is the midpoint of a concentration-inhibition curve. A word on the CC50: it is the concentration giving 50% cytotoxicity. Turning to `O=C1C=C(c2cccc([N+](=O)[O-])c2)c2ccccc2C1=O` [Example 14, 4-(3-Nitro-phenyl)-[1,2]naphthoquinone], the IC50 is over 30 µM on CD45 [1], 7.9 µM on CD45 [2] and 0.2 µM in series [3]. Besides, the CC50 in series [4] is 4 µM.
Taken in the same sequence, the figures for `C=CCOC1=CC(=O)C(=O)c2ccccc21` [Example 4, 4-Allyloxy-[1,2]naphthoquinone] were 4.9 µM, 1.2 µM, over 30 µM and over 30 µM.
Take `O=C1C=C(c2cc(Cl)cc(Cl)c2)c2ccccc2C1=O` [Example 13, 4-(3,5-Dichloro-phenyl)-[1,2]naphthoquinone]: the figures for the half-maximal inhibitory concentration (IC50) (at CD45 [2]; in series [3]) were 5.5 µM and 0.3 µM, respectively. Further, the CC50 in series [4] was 5.5 µM.
Take `O=C1C=C(Br)c2ccccc2C1=O` [Example 6, 4-Bromo-[1,2]naphthoquinone]: the concentration for half-maximal inhibition (IC50) at CD45 [1] was over 30 µM; at CD45 [2], 8.7 µM; in series [3] it was 22 µM. Further, in series [4], the half-maximal cytotoxic concentration (CC50) is over 30 µM.
Consider `COC(=O)c1ccc2c(c1)C=CC(=O)C2=O` [Example 17, 5,6-Dioxo-5,6-dihydro-naphthalene-2-Carboxylic acid methyl ester], for which the IC50 on CD45 [1] is over 30 µM; at CD45 [2] it was 7 µM; in series [3], 7 µM. Besides, in series [4], the cytotoxic concentration (CC50) was over 30 µM.
For the compound `COC(=O)c1cccc2c1C=CC(=O)C2=O` [Example 16, 5,6-Dioxo-5,6-dihydro-naphthalene-1-Carboxylic acid methyl ester], the IC50 was over 30 µM on CD45 [1] and 11 µM at CD45 [2]. Further, the cytotoxic concentration (CC50) in series [4] is over 30 µM.
For the compound `Cn1cc(C2=CC(=O)C(=O)c3ccccc32)c2ccccc21` [Example 7, 4-(1-Methyl-1H-indol-3-yl)-[1,2]naphthoquinone], the half-inhibitory concentration (IC50) worked out at 19 µM on CD45 [1], 5 µM against CD45 [2] and 1.5 µM in series [3]. The 50% cytotoxic concentration (CC50) in series [4] was over 30 µM.
With `O=C1C=C(c2ccccc2)c2ccccc2C1=O` [Example 11, 4-Phenyl-[1,2]naphthoquinone], the IC50 at CD45 [1] was over 30 µM; against CD45 [2], 5 µM; in series [3], 0.15 µM. In series [4], the CC50 is 12 µM.
On the same counts, the results for `O=C1C=C(c2ccc(Br)cc2)c2ccccc2C1=O` [Example 10, 4-(4-Bromo-phenyl)-[1,2]naphthoquinone] are over 30 µM, 7.7 µM, 0.11 µM and 3 µM.
As for `CCOC1=CC(=O)C(=O)c2ccccc21` [Example 2, 4-Ethoxy-[1,2]naphthoquinone], the IC50 against CD45 [2] is 2 µM; in series [3], over 30 µM. For the same compound, the CC50 in series [4] is 30 µM.
For `O=C1C=C(Cl)c2ccccc2C1=O` [Example 5, 4-Chloro-[1,2]naphthoquinone], the half-inhibitory concentration (IC50) is over 30 µM at CD45 [1], 10 µM on CD45 [2] and over 30 µM in series [3]. In addition, the CC50 in series [4] is over 30 µM.
Consider `O=C1C=Cc2ccc(O)cc2C1=O` [Example 18, 7-Hydroxy-[1,2]naphthoquinone], for which the IC50 against CD45 [2] is 4.9 µM; in series [3] it was over 30 µM. Further, the CC50 in series [4] was over 30 µM.
For `O=C1C=Cc2cc(C(=O)c3ccccc3)ccc2C1=O` [Example 15, 6-Benzoyl-[1,2]naphthoquinone], the IC50 on CD45 [1] is over 30 µM; on CD45 [2], 22 µM; in series [3], 11 µM. Further, the half-maximal cytotoxic concentration (CC50) in series [4] is over 30 µM.
On to `O=C1C=C(c2cccc3ccccc23)c2ccccc2C1=O` [Example 12, [1,1′]Binaphthalenyl-3,4-dione], for which the IC50 at CD45 [1] was over 30 µM; on CD45 [2], 22.5 µM; in series [3] it was 3.2 µM. In addition, the CC50 in series [4] was over 30 µM.
As for `COC1=CC(=O)C(=O)c2ccccc21` [Example 3, 4-Methoxy-[1,2]naphthoquinone], the IC50 at CD45 [1] was 4.2 µM; at CD45 [2], 1.2 µM; in series [3], over 30 µM.
With `O=C1C=C(c2c(-c3ccccc3)[nH]c3ccccc23)c2ccccc2C1=O` [Example 8, 4-(2-Phenyl-1H-indol-3-yl)-[1,2]naphthoquinone], the IC50 is 20 µM on CD45 [1], 2.9 µM against CD45 [2] and 2 µM in series [3]. Further, in series [4], the 50% cytotoxic concentration (CC50) is 16 µM.
On the same counts, the results for `O=C1C=C(c2ccccc2Cl)c2ccccc2C1=O` [Example 9, 4-(2-Chloro-phenyl)-[1,2]naphthoquinone] are over 30 µM, 8 µM, 0.3 µM and 124 µM.
On the same counts, the results for `O=C1C=Cc2ccccc2C1=O` [Example 1, [1,2]-Naphthoquinone] are over 30 µM, 3 µM, 7 µM and over 30 µM.
